We go through nine compounds from PubChem BioAssay (NCI).

Among the test systems are UO-31 renal; SN12C renal; NCI-H460 lung; MCF7 breast; 786-0 renal; COLO 205 colon; CAKI-1 renal; NCI-H226 lung; HOP-62 NSCLC; OVCAR-4 ovarian.
Test in all cases: DTP human tumour cell line panel, 48 h

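All cell lines were grown in 96-well plates and treated with compound for 48 hours. Here, GI50 denotes the concentration required for 50% inhibition of growth. TGI is the concentration that stops growth completely.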

With `O=C(O)c1cc(C(=O)C(=O)c2cc(C(=O)O)c(O)c3ccccc23)c2ccccc2c1O`, the TGI in the assay with UO-31 renal, in the assay on SN12C renal, with NCI-H460 lung, with MCF7 breast, in the assay on 786-0 renal and in the assay with COLO 205 colon was more than 100 µM each time. Further, the TGI with CAKI-1 renal, with NCI-H226 lung, in the assay on HOP-62 NSCLC and with OVCAR-4 ovarian was more than 100 µM each time.
In the case of `Oc1c(CCl)cc(Cl)cc1Cc1cc(Cl)cc(Cc2cc(Cl)cc(CCl)c2O)c1O`, the GI50 is 2.92 µM with UO-31 renal; 2.56 µM in the assay with SN12C renal; 3.26 µM with NCI-H460 lung; 2.73 µM in the assay on MCF7 breast; 4.61 µM in the assay with 786-0 renal; 7.14 µM in the assay with COLO 205 colon. The GI50 in the assay on CAKI-1 renal was 3.37 µM; with NCI-H226 lung, 4.11 µM; in the assay with HOP-62 NSCLC, 4.42 µM; in the assay with OVCAR-4 ovarian it was 3.1 µM. For the same compound, the concentration for total growth inhibition (TGI) turned out to be 11.8 µM in the assay on UO-31 renal; 8.79 µM in the assay with SN12C renal; 11 µM with NCI-H460 lung; 10.9 µM in the assay with MCF7 breast; 25.3 µM with 786-0 renal; 26.7 µM in the assay with COLO 205 colon. Further, the TGI in the assay with CAKI-1 renal is 17.7 µM; with NCI-H226 lung, 21.1 µM; in the assay with HOP-62 NSCLC it was 26.5 µM; in the assay with OVCAR-4 ovarian, 64.7 µM.
With `COc1ccc(/C=C/C(=O)c2ccc(B(O)O)cc2)cc1O`, the GI50 with UO-31 renal was 16.7 µM; with SN12C renal it was 20.1 µM; in the assay on NCI-H460 lung, 19.8 µM; with MCF7 breast it was 3.48 µM; in the assay with 786-0 renal it was 18.7 µM; with COLO 205 colon, 16.2 µM. For the same compound, the GI50 in the assay on CAKI-1 renal was 17.7 µM; with NCI-H226 lung it was 28.2 µM; in the assay on HOP-62 NSCLC it was 18.5 µM; in the assay on OVCAR-4 ovarian, 16.7 µM. For the same compound, the TGI in the assay with UO-31 renal was more than 92.8 µM; with SN12C renal it was more than 77.7 µM; in the assay with NCI-H460 lung, more than 83.4 µM; in the assay on MCF7 breast, 32.5 µM; in the assay with 786-0 renal, 53.7 µM; in the assay with COLO 205 colon, 32 µM. The total growth inhibition concentration (TGI) was more than 70.8 µM in the assay with CAKI-1 renal, 97.1 µM with NCI-H226 lung, more than 57.2 µM with HOP-62 NSCLC and 40.3 µM in the assay with OVCAR-4 ovarian.
For the compound `CCOC(=O)Nc1nc(-c2ccccc2)c(C)s1`, the concentration for total growth inhibition (TGI) in the assay on UO-31 renal, in the assay on SN12C renal, in the assay on NCI-H460 lung, in the assay on MCF7 breast, with 786-0 renal and in the assay with COLO 205 colon was more than 100 µM throughout. Also, the TGI in the assay with CAKI-1 renal, with NCI-H226 lung, in the assay on HOP-62 NSCLC and in the assay with OVCAR-4 ovarian was more than 100 µM each time.
For `Fc1ccc(-c2nn3c(COc4ccccc4Cl)nnc3s2)cc1Oc1ccccc1`, the GI50 was 27.1 µM in the assay on UO-31 renal; 20.8 µM with SN12C renal; 42.6 µM in the assay with NCI-H460 lung; 52.5 µM with MCF7 breast; 21.3 µM in the assay with 786-0 renal; 46.4 µM with COLO 205 colon. Moreover, the GI50 was 19.4 µM in the assay with CAKI-1 renal, 32.7 µM in the assay with NCI-H226 lung, 19.4 µM in the assay on HOP-62 NSCLC and 72.2 µM in the assay with OVCAR-4 ovarian. Further, the total growth inhibition concentration (TGI) in the assay with UO-31 renal is more than 100 µM; in the assay with SN12C renal it was 56.6 µM; with NCI-H460 lung, more than 100 µM; in the assay with MCF7 breast it was more than 100 µM; in the assay with 786-0 renal it was 46.7 µM; in the assay on COLO 205 colon, more than 100 µM. For the same compound, the total growth inhibition concentration (TGI) is 44 µM with CAKI-1 renal, more than 100 µM with NCI-H226 lung, 40.1 µM with HOP-62 NSCLC and more than 100 µM with OVCAR-4 ovarian.
Consider `CC(=O)N[C@@H](Cc1ccc(OP(=O)(O)O)cc1)C(=O)N[C@H]1CCC(=O)N2CCC[C@@H](C(=O)NCc3cccc4ccccc34)N2C1=O`, for which the GI50 in the assay on UO-31 renal, in the assay with SN12C renal, in the assay with NCI-H460 lung, with MCF7 breast, in the assay on 786-0 renal and in the assay with COLO 205 colon was more than 25 µM each time. Also, the GI50 in the assay with CAKI-1 renal, with NCI-H226 lung, in the assay on HOP-62 NSCLC and with OVCAR-4 ovarian was more than 25 µM each time. Moreover, the TGI in the assay with UO-31 renal, with SN12C renal, in the assay on NCI-H460 lung, in the assay on MCF7 breast, with 786-0 renal and with COLO 205 colon was more than 25 µM throughout. In addition, the TGI with CAKI-1 renal, in the assay with NCI-H226 lung, with HOP-62 NSCLC and with OVCAR-4 ovarian was more than 25 µM each time.
Consider `Cc1cc(S(=O)(=O)Nc2n[nH]c(-c3ccc(Cl)cc3)c2C#N)c(S)cc1Cl`, for which the GI50 in the assay with UO-31 renal, with SN12C renal, in the assay with NCI-H460 lung, in the assay with MCF7 breast, in the assay on 786-0 renal and with COLO 205 colon was more than 100 µM throughout. In addition, the GI50 with CAKI-1 renal is 30.3 µM; with NCI-H226 lung it was more than 100 µM; in the assay on HOP-62 NSCLC, more than 100 µM; in the assay on OVCAR-4 ovarian it was more than 100 µM. Moreover, the TGI in the assay with UO-31 renal, in the assay with SN12C renal, in the assay on NCI-H460 lung, in the assay on MCF7 breast, with 786-0 renal and in the assay with COLO 205 colon was more than 100 µM each time. Also, the TGI in the assay with CAKI-1 renal, in the assay with NCI-H226 lung, in the assay on HOP-62 NSCLC and in the assay with OVCAR-4 ovarian was more than 100 µM in each case.
Turning to `CCN1C2=C(SC(=S)C1=C1SC(C(=O)c3ccccc3)=C(C(=O)c3ccccc3)S1)SC(=Nc1ccccc1)C2=O`, the GI50 is 5.9 µM in the assay on UO-31 renal; 46 µM in the assay on SN12C renal; 27.8 µM in the assay on NCI-H460 lung; 7.44 µM in the assay on MCF7 breast; 1.53 µM in the assay with 786-0 renal; more than 100 µM in the assay with COLO 205 colon. The GI50 with CAKI-1 renal was 48 µM; in the assay with NCI-H226 lung, 25.7 µM; in the assay on HOP-62 NSCLC it was 21.7 µM; in the assay on OVCAR-4 ovarian it was more than 100 µM. Besides, the TGI is more than 100 µM with UO-31 renal; more than 100 µM in the assay with SN12C renal; more than 100 µM with NCI-H460 lung; more than 100 µM in the assay with MCF7 breast; more than 68 µM in the assay on 786-0 renal; more than 100 µM with COLO 205 colon. Besides, the TGI was more than 100 µM with CAKI-1 renal, more than 100 µM in the assay on NCI-H226 lung, 76.2 µM in the assay with HOP-62 NSCLC and more than 100 µM with OVCAR-4 ovarian.
Take `N#C/C(=C\c1ccc([N+](=O)[O-])cc1)n1nnc2cc(F)c(F)cc21`: the GI50 in the assay with UO-31 renal is 1.25 µM; with SN12C renal it was 1.77 µM; in the assay with NCI-H460 lung, 2.3 µM; with MCF7 breast, 1.29 µM; in the assay with 786-0 renal it was 1.86 µM; in the assay on COLO 205 colon, 1.89 µM. The GI50 was 1.54 µM with CAKI-1 renal, 1.97 µM in the assay on NCI-H226 lung, 1.78 µM in the assay on HOP-62 NSCLC and 1.46 µM in the assay with OVCAR-4 ovarian. Also, the TGI with UO-31 renal is 2.5 µM; with SN12C renal, 3.61 µM; in the assay on NCI-H460 lung, 5.84 µM; in the assay with MCF7 breast it was 3.4 µM; in the assay with 786-0 renal it was 3.37 µM; in the assay on COLO 205 colon it was 3.93 µM. The TGI with CAKI-1 renal was 2.92 µM; with NCI-H226 lung it was 5.73 µM; in the assay on HOP-62 NSCLC it was 4.11 µM; with OVCAR-4 ovarian, 2.86 µM.
